Test results from patent US20140107100A1, “Benzoxazepines as Inhibitors of PI3K/mTOR and Methods of Their Use and Manufacture” (EXELIXIS, INC., priority 2010, published 2014).
pIC50: −log10 of the molar value.

Biological target: mTOR/GbL/Raptor (mTORC1) (Homo sapiens, UniProt P42345)
Test: mTOR/GbL/Raptor (mTORC1) ELISA assay, phosphorylation of 4E-BP1
Type: biochemical
Details: 0.2 nM mTORC1, 40 uM ATP, 50 nM NHis-tagged 4E-BP1, 120 minutes; read-out: IC50 in this assay (mTORC1 ELISA)
In short: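 Phospho-4E-BP1 was quantified by luminescent ELISA (anti-phospho-4E-BP1 IgG, HRP-tagged secondary) after capture of the His-tagged substrate on Ni-chelate plates.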

pIC50 | Structure (SMILES)
≥ 7.00 | Cc1cc(-c2cnc3sc(N)nc3c2)cc2c1OCCN(c1nc(N3CC(O)C3)nc(C)c1C(C)C)C2 [Compound 139, 1-{4-[7-(2-amino[1,3]thiazolo[5,4-b]pyridin-6-yl)-9-methyl-2,3-dihydro-1,4-benzoxazepin-4(5H)-yl]-6-methyl-5-(1-methylethyl)pyrimidin-2-yl}azetidin-3-ol]
6.30 to 7.00 | COc1cc(-c2cnc3sc(N)nc3c2)cc2c1OCCN(c1nc(N)nc(C)c1C(C)C)C2 [Compound 140, 6-{4-[2-amino-6-methyl-5-(1-methylethyl)pyrimidin-4-yl]-9-(methyloxy)-2,3,4,5-tetrahydro-1,4-benzoxazepin-7-yl}[1,3]thiazolo[5,4-b]pyridin-2-amine]
≥ 7.00 | CC#CCc1c(C)nc(C)nc1N1CCOc2c(C)cc(-c3cnc4sc(N)nc4c3)cc2C1 [Compound 141, 6-[4-(5-but-2-yn-1-yl-2,6-dimethylpyrimidin-4-yl)-9-methyl-2,3,4,5-tetrahydro-1,4-benzoxazepin-7-yl][1,3]thiazolo[5,4-b]pyridin-2-amine]
≥ 7.00 | COC(C)c1c(C)nc(C)nc1N1CCOc2c(C)cc(-c3cnc4sc(N)nc4c3)cc2C1 (centres unmarked) [Compound 142, 6-(4-{2,6-dimethyl-5-[1-(methyloxy)ethyl]pyrimidin-4-yl}-9-methyl-2,3,4,5-tetrahydro-1,4-benzoxazepin-7-yl)[1,3]thiazolo[5,4-b]pyridin-2-amine]
≥ 7.00 | COCc1c(C)nc(C)nc1N1CCOc2c(C)cc(-c3cnc4sc(N)nc4c3)cc2C1 [Compound 143, 6-(4-{2,6-dimethyl-5-[(methyloxy)methyl]pyrimidin-4-yl}-9-methyl-2,3,4,5-tetrahydro-1,4-benzoxazepin-7-yl)[1,3]thiazolo[5,4-b]pyridin-2-amine]
≥ 7.00 | Cc1cc(-c2cnc3sc(N)nc3c2)cc2c1OCCN(c1nc(C(F)F)nc(C)c1C(C)C)C2 [Compound 144, 6-{4-[2-(difluoromethyl)-6-methyl-5-(1-methylethyl)pyrimidin-4-yl]-9-methyl-2,3,4,5-tetrahydro-1,4-benzoxazepin-7-yl}[1,3]thiazolo[5,4-b]pyridin-2-amine]
≥ 7.00 | C#Cc1c(C)nc(N)nc1N1CCOc2c(C)cc(-c3cnc4sc(N)nc4c3)cc2C1 [Compound 145, 6-[4-(2-amino-5-ethynyl-6-methylpyrimidin-4-yl)-9-methyl-2,3,4,5-tetrahydro-1,4-benzoxazepin-7-yl][1,3]thiazolo[5,4-b]pyridin-2-amine]
≥ 7.00 | Cc1cc(-c2cnc3sc(N)nc3c2)cc2c1OCCN(c1nc(C3CCCN3)nc(C)c1C(C)C)C2 (centres unmarked) [Compound 146, 6-{9-methyl-4-[6-methyl-5-(1-methylethyl)-2-pyrrolidin-2-ylpyrimidin-4-yl]-2,3,4,5-tetrahydro-1,4-benzoxazepin-7-yl}[1,3]thiazolo[5,4-b]pyridin-2-amine]
≥ 7.00 | Cc1cc(-c2cnc3sc(N)nc3c2)cc2c1OCCN(c1nc([C@@H]3CC(F)(F)CN3)nc(C)c1C(C)C)C2 [Compound 147, 6-(4-{2-[(2S)-4,4-difluoropyrrolidin-2-yl]-6-methyl-5-(1-methylethyl)pyrimidin-4-yl}-9-methyl-2,3,4,5-tetrahydro-1,4-benzoxazepin-7-yl)[1,3]thiazolo[5,4-b]pyridin-2-amine]
6.30 to 7.00 | CNc1ncnc(N2CCOc3c(C)cc(-c4cnc5sc(N)nc5c4)cc3C2)c1[N+](=O)[O-] [Compound 148, 6-{9-methyl-4-[6-(methylamino)-5-nitropyrimidin-4-yl]-2,3,4,5-tetrahydro-1,4-benzoxazepin-7-yl}[1,3]thiazolo[5,4-b]pyridin-2-amine]
≥ 7.00 | Cc1cc(-c2cnc3sc(N)nc3c2)cc2c1OCCN(c1nc(C3CCCN3C)nc(C)c1C(C)C)C2 (centres unmarked) [Compound 149, 6-{9-methyl-4-[6-methyl-5-(1-methylethyl)-2-(1-methylpyrrolidin-2-yl)pyrimidin-4-yl]-2,3,4,5-tetrahydro-1,4-benzoxazepin-7-yl}[1,3]thiazolo[5,4-b]pyridin-2-amine]
≥ 7.00 | Cc1cc(-c2cnc3sc(N)nc3c2)cc2c1OCCN(c1nc(C3CC3)nc(C)c1C(C)C)C2 [Compound 150, 6-{4-[2-cyclopropyl-6-methyl-5-(1-methylethyl)pyrimidin-4-yl]-9-methyl-2,3,4,5-tetrahydro-1,4-benzoxazepin-7-yl}[1,3]thiazolo[5,4-b]pyridin-2-amine]
≥ 7.00 | Cc1cc(-c2cnc3sc(N)nc3c2)cc2c1OCCN(c1nc([C@@H]3C[C@@H](F)CN3)nc(C)c1C(C)C)C2 [Compound 151, 6-(4-{2-[(2S,4R)-4-fluoropyrrolidin-2-yl]-6-methyl-5-(1-methylethyl)pyrimidin-4-yl}-9-methyl-2,3,4,5-tetrahydro-1,4-benzoazepin-7-yl)[1,3]thiazolo[5,4-b]pyridin-2-amine]
≥ 7.00 | COc1nc(C)c(C(C)C)c(N2CCOc3c(C)cc(-c4cnc5sc(N)nc5c4)cc3C2)n1 [Compound 152, 6-{9-methyl-4-[6-methyl-5-(1-methylethyl)-2-(methyloxy)pyrimidin-4-yl]-2,3,4,5-tetrahydro-1,4-benzoxazepin-7-yl}[1,3]thiazolo[5,4-b]pyridin-2-amine]
≥ 7.00 | COCC(C)c1c(C)nc(C)nc1N1CCOc2c(C)cc(-c3cnc4sc(N)nc4c3)cc2C1 (centres unmarked) [Compound 153, 6-(4-{2,6-dimethyl-5-[1-methyl-2-(methyloxy)ethyl]pyrimidin-4-yl}-9-methyl-2,3,4,5-tetrahydro-1,4-benzoxazepin-7-yl)[1,3]thiazolo[5,4-b]pyridin-2-amine]
≥ 7.00 | COCCOc1nc(C)c(C(C)C)c(N2CCOc3c(C)cc(-c4cnc5sc(N)nc5c4)cc3C2)n1 [Compound 154, 6-{9-methyl-4-[6-methyl-5-(1-methylethyl)-2-{[2-(methyloxy)ethyl]oxy}pyrimidin-4-yl]-2,3,4,5-tetrahydro-1,4-benzoxazepin-7-yl}[1,3]thiazolo[5,4-b]pyridin-2-amine]
≥ 7.00 | COCCc1nc(C)c(C(C)C)c(N2CCOc3c(C)cc(-c4cnc5sc(N)nc5c4)cc3C2)n1 [Compound 155, 6-(9-methyl-4-{6-methyl-5-(1-methylethyl)-2-[2-(methyloxy)ethyl]pyrimidin-4-yl}-2,3,4,5-tetrahydro-1,4-benzoxazepin-7-yl)[1,3]thiazolo[5,4-b]pyridin-2-amine]
≥ 7.00 | Cc1cc(-c2cnc3sc(N)nc3c2)cc2c1OCCN(c1nc(CN(C)CCF)nc(C)c1C(C)C)C2 [Compound 156, 6-{4-[2-{[(2-fluoroethyl)(methyl)amino]methyl}-6-methyl-5-(1-methylethyl)pyrimidin-4-yl]-9-methyl-2,3,4,5-tetrahydro-1,4-benzoxazepin-7-yl}[1,3]thiazolo[5,4-b]pyridin-2-amine]
6.30 to 7.00 | COc1cc(-c2cnc3sc(N)nc3c2)cc2c1OCCN(c1nc(CN(C)C)nc(C)c1C(C)C)C2 [Compound 157, 6-[4-{2-[(dimethylamino)methyl]-6-methyl-5-(1-methylethyl)pyrimidin-4-yl}-9-(methyloxy)-2,3,4,5-tetrahydro-1,4-benzoxazepin-7-yl][1,3]thiazolo[5,4-b]pyridin-2-amine]
≥ 7.00 | CCNCc1nc(C)c(C(C)C)c(N2CCOc3c(C)cc(-c4cnc5sc(N)nc5c4)cc3C2)n1 [Compound 158, 6-(4-{2-[(ethylamino)methyl]-6-methyl-5-(1-methylethyl)pyrimidin-4-yl}-9-methyl-2,3,4,5-tetrahydro-1,4-benzoxazepin-7-yl)[1,3]thiazolo[5,4-b]pyridin-2-amine]
